According to patent US20250249056A1, “CANCER THERAPIES COMPRISING A NUCLEAR EXPORT INHIBITOR AND AN ONCOLYTIC VIRUS” (priority 2022, published 2025):

Legend:
[1] = system: MYXV; assay: Viral replication assay: progeny virus titration on permissive rabbit RK13 cells; format: cell-based, myxoma virus; conditions: PANC-1 and HT29 cells; LMB 0.001-0.1 μM
Experimental: Viral titers in different human cancer cell lines were determined using a viral replication assay. Cells were seeded in 24-well plates (2×10^5 cells/well). The next day, the cells were treated with different concentrations of leptomycin B (LMB) or selinexor diluted in DMEM for 1 hour. MYXV was added to the cells and incubated for one hour at 37° C. After 1 hour, the unbound viruses were washed away using DMEM, and DMEM with LMB or selinexor was added to the cells. Cells were harvested in DMEM without LMB or selinexor at the indicated time points. After harvesting the cells, they were stored at −80° C. until processing. Samples were subjected to three freeze/thaw cycles and one-minute sonification to lyse cells and release the viral particles. Afterwards, different dilutions were prepared in DMEM and plated on rabbit RK13 and foci were counted after 48 hours using a fluorescent microscope. All assays and dilutions were performed in triplicate.

[2] = system: DHX9; assay: Immunofluorescence staining of DHX9 localization / antiviral granules in MYXV-infected A549 cells; format: cell-based, human
Experimental: Immunofluorescence: Cells (5×10^5-1×10^6/dish) were seeded onto glass bottom 35 mm petri dishes overnight. Depending on the experiment, the next day, cells were transfected with siRNA for 48 hours or treated with a nuclear export inhibitor, MYXV, or a combination of both. At different time points after treatment, the cells were washed with PBS three times, fixed with 2% paraformaldehyde in PBS for 12 minutes at room temperature, washed with PBS three times, and permeabilized in 0.1% Triton™ X-100 in PBS for 90 seconds at room temperature. Fixed cells were washed with PBS three times and then blocked with 3% BSA in PBS for 30 minutes at 37° C., incubated with primary antibody (1:300 dilution) for 30 minutes at 37° C., washed with PBS six times, and incubated with secondary antibodies conjugated to different Alexa Fluor. After washing again with PBS six times, samples were mounted on glass slides with Vecta Shield (Vectorlabs) containing DAPI (4′,6′-diamidino-2-phenylindole) to stain DNA in the nuclei […]. Images were captured using a fluorescence microscope (Leica).

[3] = system: MYXV; assay: MYXV reporter gene expression (GFP/TdTomato) and foci by fluorescence microscopy in human cancer cell lines; conditions: PANC-1 and HT29 cells; pretreatment with LMB 0.001-0.1 μM; vMyx-GFP-TdTomato

CCC(=C/[C@H](C)C/C=C/C(C)=C/[C@@H](C)C(=O)[C@@H](C)[C@H](O)[C@@H](C)C/C(C)=C/C(=O)O)/C=C/[C@@H]1OC(=O)C=C[C@@H]1C [LMB, leptomycin B]
viral production measured by titration assay [1]: significantly enhanced viral production | formation of DHX9 antiviral granules in the cytoplasm ([2]; A549 cells infected with vMyx-GFP, 24 h): blocked the formation of antiviral granules | cells in which DHX9 remained in the nucleus ([2]; A549 cells, LMB 1 h then vMyx-GFP MOI=1, 24 h): > 80% | viral gene expression (early/late GFP and late TdTomato reporter protein expression) [3]: enhanced viral gene expression
